Reference: patent USRE37314E, “Pyrimidine derivatives” (Shionogi Seiyaku Kabushiki Kaisha, priority 1991, dated 2001)

Molecular target: T1, HMG-CoA reductase (Rattus norvegicus, UniProt P51639)
T1 construct: The rat liver microsome sample (100 μl), which was preserved at -80° C; from tissue; host or cells: liver microsomes of Sprague-Dawley rats fed 2% cholestyramine
T1 sequence (P51639 1-887): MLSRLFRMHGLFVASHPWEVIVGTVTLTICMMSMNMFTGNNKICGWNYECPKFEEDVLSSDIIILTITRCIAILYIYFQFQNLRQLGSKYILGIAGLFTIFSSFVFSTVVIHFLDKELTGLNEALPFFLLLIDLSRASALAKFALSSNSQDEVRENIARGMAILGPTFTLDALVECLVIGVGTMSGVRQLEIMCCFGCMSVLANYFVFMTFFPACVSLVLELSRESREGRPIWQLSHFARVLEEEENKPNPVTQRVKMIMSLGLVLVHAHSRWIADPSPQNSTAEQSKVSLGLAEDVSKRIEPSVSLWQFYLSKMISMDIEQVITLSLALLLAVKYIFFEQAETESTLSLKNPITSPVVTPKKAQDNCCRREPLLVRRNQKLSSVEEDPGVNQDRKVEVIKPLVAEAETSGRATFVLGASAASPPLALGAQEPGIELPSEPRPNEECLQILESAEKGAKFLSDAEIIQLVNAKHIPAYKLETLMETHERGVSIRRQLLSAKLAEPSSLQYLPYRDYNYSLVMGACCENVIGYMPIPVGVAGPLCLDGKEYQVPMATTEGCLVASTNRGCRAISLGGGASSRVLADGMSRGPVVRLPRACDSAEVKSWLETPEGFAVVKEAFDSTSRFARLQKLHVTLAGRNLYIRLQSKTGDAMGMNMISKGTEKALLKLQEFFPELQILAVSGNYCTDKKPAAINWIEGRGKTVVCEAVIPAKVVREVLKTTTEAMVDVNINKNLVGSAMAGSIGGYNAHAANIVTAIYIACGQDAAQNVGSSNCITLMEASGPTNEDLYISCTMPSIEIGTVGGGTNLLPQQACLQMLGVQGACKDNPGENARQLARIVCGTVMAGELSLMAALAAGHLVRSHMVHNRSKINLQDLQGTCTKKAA
Test: HMG-CoA reductase inhibitory effect (rat liver microsome, [14C]HMG-CoA, TLC/scintillation)
Type: biochemical
Conditions: comparative activity, with activity of Mevinolin (sodium salt) as reference drug taken as 100, sodium salt of test compound, 37° C., 30 minutes
Experimental: The HMG-CoA reductase inhibitory effect
(1) Preparation of rat liver microsome
Sprague-Dawley rats, which were in free access to ordinary dietes containing 2% cholestyramine and water for 2 weeks, were used for the preparation of rat liver microsome. The thus obtained microsome was the purified according to the manner by Juroda et al., Biochem. Biophys. Act, 486, 70 (1977). The microsomal fraction obtained by centrifugation at 105,000×g was washed once with a buffered solution containing 15 mM nicotinamide and 2 mM magnesium chloride (in a 100 mM potassium phosphate buffer, pH 7.4). It was homogenized with a buffer containing nicotinamide and magnesium chloride at the same weight as the liver employed. The thus obtained homogenate was cooled down and kept at -80° C.
(2) Measurement of the HMG-CoA reductase inhibitory activities
The rat liver microsome sample (100 μl), which was preserved at -80° C., was fused at 0° C. and diluted with 0.7 ml of a cold potassium phosphate buffer (100 mM, pH7.4). This was mixed with 0.8 ml of 50 mM EDTA (buffered with the aforementioned potassium phosphate buffer) and 0.4 ml of 100 mM dithiothreitol solution (buffered with the aforementioned potassium phosphate buffer), and the mixture was kept at 0° C. The microsome solution (1.675 ml) was mixed with 670 μl of 25 mM NADPH (buffered with the aformentioned potassium phosphate buffer), and the solution was added to the solution of 0.5 mM [3^-14 ](HMG-CoA (3mCi/mmol). A solution (5 μl) of sodium salt of the test compound dissolved in potassium phosphate buffer is added to 45 μl of the mixture. The resulting mixture was incubated at 37° C. for 30 minutes and cooled. After termination of the reaction by addition of 10 μl of 2N·HCl, the mixture was incubated again at 37° C. for 15 minutes and then 30 μl of this mixture was applied to thin-layer chromatography of silica gel of 0.5 mm in thickness (Merck AG, Art 5744). The chromatograms were developed in toluene/acetone (1/1) and the spot, whose Rf value was between 0.45 to 0.60, were scraped. The obtained products were put into a vial containing 10 ml of scintillator to measure specific radio-activity with scintillation counter.

CC(C)c1nc(N(C)NS(C)(=O)=O)nc(-c2ccc(F)cc2)c1C=CC(O)CC(O)CC(=O)O (centres unmarked) [Compound 1a-7]
HMG-CoA reductase inhibitory activities: 260

COc1nc(-c2ccc(F)cc2)c(C=CC(O)CC(O)CC(=O)O)c(C(C)C)n1 (centres unmarked) [Compound 1a-5]
HMG-CoA reductase inhibitory activities: 279

CC[C@H](C)C(=O)O[C@H]1C[C@@H](C)C=C2C=C[C@H](C)[C@H](CC[C@@H](O)C[C@@H](O)CC(=O)O)[C@H]21 [Mevinolin Na, Mevinolin, reference compound]
HMG-CoA reductase inhibitory activities: 100

CSc1nc(-c2ccc(F)cc2)c(C=CC(O)CC(O)CC(=O)O)c(C(C)C)n1 (centres unmarked) [Compound 1a-3]
HMG-CoA reductase inhibitory activities: 385

CC(C)c1nc(N(C)S(C)(=O)=O)nc(-c2ccc(F)cc2)c1C=CC(O)CC(O)CC(=O)O (single isomer, unassigned) [Compound 1a-1]
HMG-CoA reductase inhibitory activities: 442
